The record followed here is article PMC12292992, “Betulinic Acid ω-Triphenylphosphonium Alkyl Esters: Antiproliferative Activities and In Silico Pharmacokinetic Profiles” (Biomedicines, 2025).

Data set [1] has as its system SK-MES-1 cells. Kind of data set: MTT cell viability assay, lung cancer. The format is cell-based. Particulars: Homo sapiens, SK-MES-1, 72 h. The method, then:
(§1) Human cell lines were obtained from the American Type Culture Collection (ATCC, Manassas, VA, USA). Normal lung MRC-5 fibroblasts (ATCC® CCL-171™), SK-MES-1 lung cancer cells (ATCC® HTB-58™), and J82 bladder carcinoma cells (ATCC® HTB-1™) were grown as monolayers in Eagle’s minimum essential medium (MEM) with Earle’s salts, 2 mM L-glutamine, and 1.5 g/L sodium bicarbonate. Gastric epithelial AGS cells (ATCC® CRL-1739™) were grown as monolayers in Ham’s F-12 medium containing 1 mM L-glutamine and 1.5 g/L sodium bicarbonate. Promyelocytic leukemia HL-60 (ATCC® CCL-240™), colorectal adenocarcinoma HCT-15 (ATCC® CCL-225™), metastatic colorectal COLO205 (ATCC® CCL-222™), and breast cancer AU565 (ATCC® CRL-2351™, ER^−-HER2/neu^+) cells were grown in suspension in an RPMI-1640 medium containing 1 mM sodium pyruvate and 2.0 g/L sodium bicarbonate. Human breast cancer MCF-7 (ATCC® HTB-22™, ER^+-HER2/neu^−) and MDA-MB-231 (ATCC® HTB-26™, ER^−-HER2/neu^−) cells were grown as monolayers in DMEM medium. All media were supplemented with 10% heat-inactivated fetal bovine serum (HI-FBS), 100 IU/mL penicillin G, and 100 µg/mL streptomycin. Cells were maintained at 37 °C in a humidified incubator with 5% CO2.
(§2) MRC-5, SK-MES-1, J82, and AGS cells were seeded at a density of 5 × 10^4 cells/mL in 96-well plates. COLO205, HCT-15, MCF-7, MDA-MB-231, and AU565 cells were seeded at 1 × 10^5 cells/mL, while HL-60 cells were plated at 3 × 10^5 cells/mL. A volume of 100 µL of the cell suspension was added to each well. After 24 h, the compounds were added in increasing concentrations (ranging from 0 to 100 µM), and cells were incubated for 24, 48, or 72 h. The compounds were dissolved in DMSO and diluted in complete medium to a final concentration of 0.5% DMSO. Cells treated with 0.5% DMSO in complete medium were used as viability controls (100%). Etoposide (98% purity, Sigma-Aldrich, St. Louis, MO, USA) was used as the reference compound. Each concentration was tested in quadruplicate, and each experiment was performed twice using independent cell preparations. At the end of the incubation period, cell viability was determined using the MTT reduction assay. The results were transformed into percentages relative to controls, and IC50 values were obtained graphically from the dose–response curves. Results are presented as IC50 values ± standard deviation (SD).

Data set [2] relates to HCT-15 cells. Kind of data set: MTT cell viability assay, colorectal carcinoma. The format is cell-based, human. Particulars: for IC50: Homo sapiens. Here is the method: as §1, §2
Data set [3] has as its system COLO205 cells. Kind of data set: MTT cell viability assay, metastatic colorectal cancer. The format is cell-based, human. Particulars: for IC50: Homo sapiens, COLO 205. Here is the method:
as §1, §2

Data set [4] relates to MCF-7 cells. The experiment in a line: MTT cell viability assay, mammary carcinoma. The format is cell-based. The settings on record: Homo sapiens, MCF7. Here is the method:
as §1, §2

Data set [5] relates to MDA-MB-231 cells. Kind of data set: MTT cell viability assay, mammary carcinoma. The format is cell-based. Particulars: Homo sapiens. The method, then: as §1, §2
In data set [6] the test system is AU565 cells. Kind of data set: Oxygen consumption assay (Clark-type electrode). The format is cell-based, human. Particulars: AU565, 10 and 20 µM. Here is the method: (§3) Oxygen consumption of the tumor cells was measured polarographically using a Clark-type electrode (Yellow Springs Instruments, Dayton, OH, USA) placed horizontally in a cell of 0.6 mL volume at 25 °C, coupled to a YSI monitor (model 53). The electrode signal was recorded in a computer connected to a DI-148U module with a USB interface. Data were acquired using the Windaq Acquisition Waveform Recorder software v3.36 (DataQ Instruments, Akron, OH, USA). The test medium used contained 150 mM NaCl, 5 mM KCl, and 1 mM Tris-HCl, and pH 7.4. 5 mM glutamine was added with the cells and test compounds. Oxygen consumption was recorded when the cell aliquots (6 × 10^6 cells) were added. Oligomycin (1.5 μg/mL) was added as an inhibitor of the Fo subunit of ATP synthase prior to the incorporation of the compounds under study. FCCP (carbonyl cyanide-p-trifluoromethoxyphenylhydrazone, 50 nM) was used prior to the addition of test compounds as an internal control to calibrate the electrode system and confirm the maximum uncoupling capacity of the cells.

For data set [7], the system named is MCF-7 cells. The experiment in a line: Oxygen consumption assay (Clark-type electrode). The format is cell-based, human. The settings on record: for oxygen consumption rate: after oligomycin. The method, then:
as §3

Data set [8] deals with COLO205 cells. Kind of data set: LDH release assay. The format is cell-based, human. Particulars: COLO205, 0.5–5 μM, 24 h. Here is the method: (§4) COLO205 and HCT-15 cells were cultured at 2 × 10^4 cells/well in 96-well plates and incubated for 24 h. Afterwards, BA-C4-TPP^+Br^− was added in increasing concentrations (0.5, 1, 2.5, and 5 µM) for 24 h. Finally, the supernatant of each well was transferred to a new plate (10 µL/well), and the LDH reaction mix was added (100 µL/well). The plate was incubated for 20 min at room temperature, and the absorbance of each well was measured using a Varioskan® Flash plate reader (Thermo Scientific, Waltham, MA, USA) at 450 nm. All values are expressed as a percentage of LDH activity relative to cells incubated with Cell Lysis solution (provided in the kit) for 24 h.

Data set [9] has as its system HCT-15 cells. The experiment in a line: LDH release assay. The format is cell-based, human. The method, then: as §4

On to `C=C(C)[C@@H]1CC[C@]2(C(=O)OCCCC[P+](c3ccccc3)(c3ccccc3)c3ccccc3)CC[C@]3(C)[C@H](CC[C@@H]4[C@@]5(C)CC[C@H](O)C(C)(C)[C@@H]5CC[C@]43C)[C@@H]12` [BA-C4-TPP^+Br^−, 4-Triphenylphosphoniobutyl 3β-hydroxylup-20(29)-en-28-oate bromide], for which the IC50 in data set [1] was found to be 320 ± 80 nM; in [2] (HCT-15, 24 h), 1460 ± 170 nM; in data set [2] (HCT-15, 48 h), 610 ± 160 nM; in data set [2] (HCT-15, 72 h), 520 ± 120 nM; in [3] (COLO205, 24 h), 880 ± 220 nM; in data set [3] (COLO205, 48 h), 450 ± 90 nM. In addition, the IC50 in data set [3] (COLO205, 72 h) is 130 ± 10 nM; in [4] (MCF-7, 24 h), 3880 ± 450 nM; in data set [4] (MCF-7, 48 h), 950 ± 340 nM; in data set [5] (MDA-MB-231, 24 h), 1700 ± 440 nM; in data set [5] (MDA-MB-231, 48 h) it was 1010 ± 90 nM. Besides, the “increase in potency compared to non-modified BA scaffold” value is listed as “approximately 7 fold” in data set [2] (HCT-15 cells at 72 h) and around 264 fold in data set [3] (COLO205 cells at 72 h). Moreover, the mitochondrial uncoupling effect result in [6] is listed as “the strongest uncoupler in AU565 cells”; in data set [7] (MCF-7, 10 and 20 µM) it was “concentration-dependent”. Moreover, the oxygen consumption rate in data set [7] (MCF-7, 10 µM compound) is 12.57 nmol O2 min^−1; in data set [7] (MCF-7, 20 µM compound) it was 21.66 nmol O2 min^−1. Moreover, the LDH release result in data set [8] was “no significant LDH release”; in [9] (HCT-15, 2.5 μM, 24 h, relative to Cell Lysis solution) it was 18%. Further, the “LDH release relative to control (DMSO)” value in data set [9] (HCT-15, 24 h) was “double the control (DMSO) value”.
